Measured values from US20220380341A1, “INHIBITORS OF HIV-1 NEF FOR THE TREATMENT OF HIV DISEASE” (priority 2018, published 2022).
Read-outs that look alike come from different tables or passages of the source.

Assays:
[1] = target: HIV-1 NefNL4-3 (Human immunodeficiency virus type 1 group M subtype B, UniProt P03406, A33V/T15A/T51N/V11I); assay: Surface plasmon resonance binding to recombinant full-length Nef (NL4-3); details: for RU30/RUNef (extent of binding): response units at 30 μM relative to Nef immobilized on the SPR chip
[2] = tested on: HIV-1NL4-3; assay: HIV-1 infectivity assay in TZM-bl reporter cell line (LTR-luciferase, 48 h); type: cell-based; details: Human immunodeficiency virus 1, TZM-bl
How it was run: (§1)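 Nef-dependent infectivity in TZM-bl cells: HIV-1NL4-3 infection with 1 μM compound, luciferase read at 48 h, normalized against DMSO wild-type and Nef-defective controls. Compound cytotoxicity in uninfected cells measured by Cell Titer Blue.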

[3] = tested on: TZM-bl cell line; type: cell-based; details: human, 1 μM
How it was run: as §1

[4] = KD, M, Table 4, SPR fit 2-step induced fit, KD = koff/kon × koff2/(koff2 + kon2)
[5] = Nef NL4-3 Binding, SPR 2-state fitting KD, Table 1, 2-step induced-fit model
[6] = Table 4, 2-step induced fit, T = 1/koff2
[7] = read-out: Nef NL4-3 Binding, SPR 1:1 or 2-site fitting KD2, Table 1, 2-site fit, second component
[8] = 1.0 μM, TZM-bl reporter cell line, Table 4, read-out: % Infectivity Inhibition
[9] = 48 h, Table 1, TZM-bl cells, 1 μM, 48 h, 100% = Nef-defective HIV-1, read-out: HIV-1 Infectivity % Inhibition Norm. to Δ-Nef @ 1 μM
[10] = KD, M, Table 4, SPR fit 1:1 Langmuir, KD = koff/kon
[11] = Table 4, 1:1 Langmuir fit, T = 1/koff

Row | Structure (SMILES) | Kd [1] [µM] | Kd [1, 4] [µM] | Kd [1, 5] [µM] | T, minutes (residence time) [1, 6] | Kd [1, 7] [µM] | RU30/RUNef (extent of binding) [1] | inhibition at 1 µM [2, 8] [%] | inhibition at 1 µM [2, 9] [%] | % Cell Viability [3] [%] | Percent Viability @ 1 μM (TZM-bl cells) [3] [%] | Kd [1, 10] [µM] | T, minutes (residence time) [1, 11] [E + 00 minutes] | Nef NL4-3 Binding, SPR 1:1 or 2-site fitting KD1 ([1]; Table 1, 1:1 Langmuir fit where the KD2 cell says '1 to 1 fitting', else 2-site fit)
1 | CS(=O)(=O)c1ccc(-c2nn(-c3nc4cc(Cl)ccc4[nH]3)c(O)c2CCC2CCOCC2)cc1 [Compound I-168, 1-(5-chloro-1H-1,3-benzodiazol-2-yl)-3-(4-methanesulfonylphenyl)-4-[2-(oxan-4-yl)ethyl]-1H-pyrazol-5-ol] | 0.751 | 2.73 | 2.73 | 4.96E + 00 minutes | 4.97 | 6.97E- 03 | 19.2 | 19.2 | 97.9 | 97.9 |  |  | 
2 | CS(=O)(=O)c1ccc(-c2nn(-c3nc4cc(F)ccc4[nH]3)c(O)c2CCC2CCOCC2)cc1 [Compound I-169, 1-(5-fluoro-1H-1,3-benzodiazol-2-yl)-3-(4-methanesulfonylphenyl)-4-[2-(oxan-4-yl)ethyl]-1H-pyrazol-5-ol] | 0.465 |  | 7.4 |  | 1.81 |  |  | -4.8 |  | 98.7 |  |  | 
3 | COC(=O)c1ccc(CCc2c(-c3ccccc3)nn(-c3nc4cc(Cl)ccc4[nH]3)c2O)cc1 [Compound I-171, methyl 4-{2-[1-(5-chloro-1H-1,3-benzodiazol-2-yl)-5-hydroxy-3-phenyl-1H-pyrazol-4-yl]ethyl}benzoate] | 0.892 | 0.0133 | 0.0133 | 7.82E + 02 minutes |  | 2.77E- 02 | 100 | 131 | 75.8 | 75.8 |  |  | 
4 | Oc1c(CCc2ccc(F)cc2)c(-c2ccc(F)cc2)nn1-c1nc2cc(Cl)ccc2[nH]1 [Compound I-172, 1-(5-chloro-1H-1,3-benzodiazol-2-yl)-3-(4-fluoropheny1)-4-[2-(4-fluorophenyl)ethyl]-1H-pyrazol-5-ol] | 0.25 | 0.0693 | 0.0693 | 1.73E + 01 minutes |  | 4.28E- 02 | 56 | 56 | 96.5 | 96.5 |  |  | 
5 | Oc1c(CC2CCOCC2)c(-c2ccc(F)cc2)nn1-c1nc2cc(F)ccc2[nH]1 [Compound I-173, 1-(5-fluoro-1H-1,3-benzodiazol-2-yl)-3-(4-fluorophenyl)-4-[(oxan-4-yl)methyl]-1H-pyrazol-5-ol] |  | 0.000348 |  | 7.12E + 04 minutes |  | 5.24E- 03 | 97.2 |  | 85.7 |  |  |  | 
6 | Oc1c(CC2CCOCC2)c(C2CC2)nn1-c1nc2ccccc2[nH]1 [Compound I-174, 1-(1H-1,3-benzodiazol-2-yl)-3-cyclopropyl-4-[(oxan-4-yl)methyl]-1H-pyrazol-5-ol] | 1.37 |  |  |  |  | 3.94E- 03 | 11.9 | 11.9 | 100 | 101.5 | 1.37 | 6.54 | 
7 | Oc1c(CC2CCCOC2)c(-c2ccc(F)cc2)nn1-c1nc2ccccc2[nH]1 (stereo not drawn) [Compound I-175, 1-(1H-1,3-benzodiazol-2-yl)-3-(4-fluorophenyl)-4-[(oxan-3-yl)methyl]-1H-pyrazol-5-ol] |  |  |  |  |  | 6.67E- 04 | 67.2 |  | 88.8 |  | 0.605 | 7.72 | 
8 | Oc1c(CC2CCOCC2)c(C2CC(F)(F)C2)nn1-c1nc2ccccc2[nH]1 [Compound I-176, 1-(1H-1,3-benzodiazol-2-yl)-3-(3,3-difluorocyclobutyl)-4-[(oxan-4-yl)methyl]-1H-pyrazol-5-ol] |  |  |  |  |  | 1.52E- 03 | 0 |  | 98.4 |  | 2.24 | 5.08 | 
9 | Oc1c(CC2CCOCC2)c(CCC2CCOCC2)nn1-c1nc2ccccc2[nH]1 [Compound I-178, 1-(1H-1,3-benzodiazol-2-yl)-3-[2-(oxan-4-yl)ethyl]-4-[(oxan-4-yl)methyl]-1H-pyrazol-5-ol] |  | 10.9 |  | 7.72E + 00 minutes |  | 8.86E- 03 | 0 |  | 97.9 |  |  |  | 
10 | CC(C)(C)c1nn(-c2nc3ccccc3[nH]2)c(O)c1CC1CCOCC1 [Compound I-180, 1-(1H-1,3-benzodiazol-2-yl)-3-tert-butyl-4-[(oxan-4-yl)methyl]-1H-pyrazol-5-ol] |  |  |  |  |  | 2.62E- 03 | 74.8 |  | 100 |  | 7.19 | 2.48 | 
11 | Oc1c(CCC2CCOCC2)c(-c2ccc(F)cc2)nn1-c1nc2ccccc2[nH]1 [Compound I-182, 1-(1H-1,3-benzodiazol-2-yl)-3-(4-fluorophenyl)-4-[2-(oxan-4-yl)ethyl]-1H-pyrazol-5-ol] |  | 4.42 |  | 9.98E + 00 minutes |  | 1.11E- 02 | 100 |  | 90 |  |  |  | 
12 | Oc1c(CC2CCOCC2)c(-c2ccccc2)nn1-c1nc2ccccc2[nH]1 [Compound I-183, 1-(1H-1,3-benzodiazol-2-yl)-4-[(oxan-4-yl)methyl]-3-phenyl-1H-pyrazol-5-ol] |  |  |  |  |  | 1.71E- 03 | 37.8 |  | 100 |  | 2.27 | 7.61 | 
13 | Oc1c(CC2CCOCC2)c(-c2cccc(F)c2)nn1-c1nc2ccccc2[nH]1 [Compound I-184, 1-(1H-1,3-benzodiazol-2-yl)-3-(3-fluorophenyl)-4-[(oxan-4-yl)methyl]-1H-pyrazol-5-ol] |  |  |  |  |  | 2.48E- 03 | 100 |  | 100 |  | 3.52 | 6.46 | 
14 | Oc1c(CC2CCOCC2)c(-c2ccc(F)c(F)c2)nn1-c1nc2ccccc2[nH]1 [Compound I-185, 1-(1H-1,3-benzodiazol-2-yl)-3-(3,4-difluorophenyl)-4-[(oxan-4-yl)methyl]-1H-pyrazol-5-ol] |  | 3.4 |  | 1.04E + 01 minutes |  | 4.57E- 03 | 100 |  | 95.1 |  |  |  | 
15 | Oc1c(CC2CCOCC2)c(-c2ccccc2F)nn1-c1nc2ccccc2[nH]1 [Compound I-186, 1-(1H-1,3-benzodiazol-2-yl)-3-(2-fluorophenyl)-4-[(oxan-4-yl)methyl]-1H-pyrazol-5-ol] |  | 11.7 |  | 7.72E + 00 minutes |  | 1.62E- 02 | 61.5 |  | 99.3 |  |  |  | 
16 | Oc1c(CC2CCOCC2)c(-c2ccc(F)cc2F)nn1-c1nc2ccccc2[nH]1 [Compound I-187, 1-(1H-1,3-benzodiazol-2-yl)-3-(2,4-difluorophenyl)-4-[(oxan-4-yl)methyl]-1H-pyrazol-5-ol] |  | 3.07e-05 |  | 1.02E + 06 minutes |  | 8.62E- 03 | 20.2 |  | 100 |  |  |  | 
17 | CC(C)(C)OC(=O)N1CCC(Cc2nn(-c3nc4ccccc4[nH]3)c(O)c2CCc2ccc(F)cc2)C1 (stereo not drawn) [Compound I-206, tert-butyl 3-{[1-(1H-1,3-benzodiazol-2-yl)-4-[2-(4-fluorophenyl)ethyl]-5-hydroxy-1H-pyrazol-3-yl]methyl}pyrrolidine-1-carboxylate] |  |  |  |  |  |  |  | 35.2 |  | 90.6 |  |  | No Interaction
18 | CC(C)(C)OC(=O)c1ccc(-c2nn(-c3nc4ccccc4[nH]3)c(O)c2CCc2ccc(F)cc2)cc1 [Compound I-208, tert-butyl 4-[1-(1H-1,3-benzodiazol-2-yl)-4-[2-(4-fluorophenyl)ethyl]-5-hydroxy-1H-pyrazol-3-yl]benzoate] | 13.8 | 67.8 | 67.8 | 3.95E- 02 minutes |  | 1.63E- 02 | 39.2 | 39.2 | 90.6 | 90.6 |  |  | 
19 | CC(C)(C)OC(=O)N1C[C@@H]2[C@H](C1)[C@H]2c1nn(-c2nc3ccccc3[nH]2)c(O)c1CCc1ccc(F)cc1 [Compound I-209, tert-butyl 6-[1-(1H-1,3-benzodiazol-2-yl)-4-[2-(4-fluorophenyl)ethyl]-5-hydroxy-1H-pyrazol-3-yl]-3-azabicyclo[3.1.0]hexane-3-carboxylate] | 0.776 | 4.83 | 5.83 | 3.81E- 01 minutes |  | 8.59E- 03 | 4.2 | 4.2 | 100 | 100.1 |  |  | 
